Source: US12110288B2, “MASP-2 inhibitors and methods of use” (Omeros Corporation, priority 2019, dated 2024)
Counter-ions that a name gives are not always drawn.

Each compound was assayed against T1, MASP-2 (CCP1-CCP2-SP) (Homo sapiens, UniProt O00187) (assay: Enzymatic Assay for MASP-2). Details: fluorogenic substrate based on C2 cleavage site, room temperature, 20 mM HEPES pH 7.4.
T1 construct: 15 μL of Enzyme MASP-2 (CCP1-CCP2-SP) in Assay Buffer
Assay type: biochemical
Summary of the method: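 Fluorogenic substrate modelled on the C2 cleavage site, run at room temperature in 20 mM HEPES pH 7.4, 140 mM NaCl, 0.1% Tween 20; compounds were added from DMSO serial dilutions before enzyme and substrate. Reactions ran 20 min and were stopped with 0.1 M acetic acid before fluorescence was read. % activity was normalised to DMSO-only and no-enzyme controls; IC50 was taken as Ki, with tight- or slow-binding inhibitors handled separately.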

T1 sequence (O00187 445-686 limits assumed): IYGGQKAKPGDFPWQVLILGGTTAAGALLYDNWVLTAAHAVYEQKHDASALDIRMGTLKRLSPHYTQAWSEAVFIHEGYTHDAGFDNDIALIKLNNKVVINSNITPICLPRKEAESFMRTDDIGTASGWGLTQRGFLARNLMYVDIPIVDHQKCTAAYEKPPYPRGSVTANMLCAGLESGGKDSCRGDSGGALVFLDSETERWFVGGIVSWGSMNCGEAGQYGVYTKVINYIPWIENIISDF
T1 sequence (O00187 298-444 partner limits assumed): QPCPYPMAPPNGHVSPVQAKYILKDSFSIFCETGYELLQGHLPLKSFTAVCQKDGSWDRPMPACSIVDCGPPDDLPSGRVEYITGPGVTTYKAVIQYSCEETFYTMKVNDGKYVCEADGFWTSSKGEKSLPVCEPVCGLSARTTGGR

Question: With `O=C(Cn1c(-c2cnn(C(F)F)c2)cnc(NCCc2ccccc2)c1=O)NCc1cc2cnccc2[nH]1` [Compound 113, N-((1H-Pyrrolo[3,2-c]pyridin-2-yl)methyl)-2-(6-(1-(difluoromethyl)-1H-pyrazol-4-yl)-2-oxo-3-(phenethylamino)pyrazin-1(2H)-yl)acetamide] as the compound, how does the Ki read?
Answer: < 0.5 µM

Question: How did the Ki turn out when `Cc1nn(C2CC2)cc1-c1cnc(NCCc2ccccc2)c(=O)n1CC(=O)NCc1cc2cnccc2[nH]1` [Compound 114, N-((1H-Pyrrolo[3,2-c]pyridin-2-yl)methyl)-2-(6-(1-cyclopropyl-3-methyl-1H-pyrazol-4-yl)-2-oxo-3-(phenethylamino)pyrazin-1(2H)-yl)acetamide] was run?
Answer: < 0.5 µM

Question: With `O=C(Cn1c(-c2cnn3c2CCC3)cnc(NCCc2ccccc2)c1=O)NCc1cc2cnccc2[nH]1` [Compound 115, N-((1H-Pyrrolo[3,2-c]pyridin-2-yl)methyl)-2-(6-(5,6-dihydro-4H-pyrrolo[1,2-b]pyrazol-3-yl)-2-oxo-3-(phenethylamino)pyrazin-1(2H)-yl)acetamide] as the compound, how does the Ki read?
Answer: < 0.5 µM

Question: `O=C(Cn1c(-c2cnn3c2CCCC3)cnc(NCCc2ccccc2)c1=O)NCc1cc2cnccc2[nH]1` [Compound 116, N-((1H-Pyrrolo[3,2-c]pyridin-2-yl)methyl)-2-(2-oxo-3-(phenethylamino)-6-(4,5,6,7-tetrahydropyrazolo[1,5-α]pyridin-3-yl)pyrazin-1(2H)-yl)acetamide] was tested. Which Ki did it give?
Answer: < 0.5 µM

Question: For `CCOC(=O)CNc1ncc(-c2ccccc2)n(CC(=O)NCc2cc3cnccc3[nH]2)c1=O` [Compound 117, Ethyl (4-(2-(((1H-pyrrolo[3,2-c]pyridin-2-yl)methyl)amino)-2-oxoethyl)-3-oxo-5-phenyl-3,4-dihydropyrazin-2-yl)glycinate], which Ki is on record?
Answer: < 0.5 µM

Question: How did the Ki turn out when `O=C(O)CNc1ncc(-c2ccccc2)n(CC(=O)NCc2cc3cnccc3[nH]2)c1=O` [Compound 118, (4-(2-(((1H-Pyrrolo[3,2-c]Pyridin-2-yl)Methyl)Amino)-2-Oxoethyl)-3-Oxo-5-Phenyl-3,4-Dihydropyrazin-2-yl)Glycine Trifluoroacetate] was run?
Answer: 0.5 to 2.5 µM

Question: Which Ki does the source give for `O=C(Cn1c(-c2ccccc2)cnc(N[C@@H](Cc2ccc(O)cc2)C(=O)O)c1=O)NCc1cc2cnccc2[nH]1` [Compound 119, trifluoroacetate] here?
Answer: < 0.5 µM

Question: With `COCCNc1ncc(-c2ccccc2)n(CC(=O)NCc2cc3cnccc3[nH]2)c1=O` [Compound 120, N-((1H-Pyrrolo[3,2-c]pyridin-2-yl)methyl)-2-(3-((2-methoxyethyl)amino)-2-oxo-6-phenylpyrazin-1(2H)-yl)acetamide trifluoroacetate] as the compound, how does the Ki read?
Answer: < 0.5 µM

Question: For `COCCCNc1ncc(-c2ccccc2)n(CC(=O)NCc2cc3cnccc3[nH]2)c1=O` [Compound 121, N-((1H-Pyrrolo[3,2-c]pyridin-2-yl)methyl)-2-(3-((3-methoxypropyl)amino)-2-oxo-6-phenylpyrazin-1(2H)-yl)acetamide trifluoroacetate], which Ki is on record?
Answer: < 0.5 µM

Question: `COCCCCNc1ncc(-c2cnn(C)c2)n(CC(=O)NCc2cc3cnccc3[nH]2)c1=O` [Compound 122, N-((1H-Pyrrolo[3,2-c]Pyridin-2-yl)Methyl)-2-(3-((4-Methoxybutyl)Amino)-6-(1-Methyl-1H-Pyrazol-4-yl)-2-Oxopyrazin-1(2H)-yl)Acetamide Trifluoroacetate] was tested. Which Ki did it give?
Answer: < 0.5 µM

Question: `Cn1cc(-c2cnc(NCC(F)(F)c3ccccc3)c(=O)n2CC(=O)NCc2cc3cnccc3[nH]2)cn1` [Compound 123, N-((1H-Pyrrolo[3,2-c]Pyridin-2-yl)Methyl)-2-(3-((2,2-Difluoro-2-Phenylethyl)Amino)-6-(1-Methyl-1H-Pyrazol-4-yl)-2-Oxopyrazin-1(2H)-yl)Acetamide Trifluoroacetate] was tested. Which Ki did it give?
Answer: < 0.5 µM

Question: How did the Ki turn out when `COCCCCNc1ncc(-c2ccccc2)n(CC(=O)NCc2cc3cnccc3[nH]2)c1=O` [Compound 124, N-((1H-Pyrrolo[3,2-c]pyridin-2-yl)methyl)-2-(3-((4-methoxybutyl)amino)-2-oxo-6-phenylpyrazin-1(2H)-yl)acetamide trifluoroacetate] was run?
Answer: < 0.5 µM

Question: `Cn1cc(-c2cnc(NCCC(F)F)c(=O)n2CC(=O)NCc2cc3cnccc3[nH]2)cn1` [Compound 125, N-((1H-Pyrrolo[3,2-c]pyridin-2-yl)methyl)-2-(3-((3,3-difluoropropyl)amino)-6-(1-methyl-1H-pyrazol-4-yl)-2-oxopyrazin-1(2H)-yl)acetamide trifluoroacetate] was tested. Which Ki did it give?
Answer: < 0.5 µM

Question: How did the Ki turn out when `CCOCCCNc1ncc(-c2ccccc2)n(CC(=O)NCc2cc3cnccc3[nH]2)c1=O` [Compound 126, N-((1H-Pyrrolo[3,2-c]Pyridin-2-yl)Methyl)-2-(3-((3-Ethoxypropyl)Amino)-2-Oxo-6-Phenylpyrazin-1(2H)-yl)Acetamide Trifluoroacetate] was run?
Answer: < 0.5 µM

Question: Which Ki does the source give for `O=C(Cn1c(-c2ccccc2)cnc(NCCC(F)F)c1=O)NCc1cc2cnccc2[nH]1` [Compound 127, N-((1H-Pyrrolo[3,2-c]pyridin-2-yl)methyl)-2-(3-((3,3-difluoropropyl)amino)-2-oxo-6-phenylpyrazin-1(2H)-yl)acetamide trifluoroacetate] here?
Answer: < 0.5 µM

Question: With `O=C(Cn1c(-c2ccccc2)cnc(NCC(F)(F)c2ccccc2)c1=O)NCc1cc2cnccc2[nH]1` [Compound 128, N-((1H-Pyrrolo[3,2-c]pyridin-2-yl)methyl)-2-(3-((2,2-difluoro-2-phenylethyl)amino)-2-oxo-6-phenylpyrazin-1(2H)-yl)acetamide trifluoroacetate] as the compound, how does the Ki read?
Answer: < 0.5 µM

Question: `CCOCCCNc1ncc(-c2cnn(C)c2)n(CC(=O)NCc2cc3cnccc3[nH]2)c1=O` [Compound 129, trifluoroacetate] was tested. Which Ki did it give?
Answer: < 0.5 µM

Question: With `Cn1cc(-c2cnc(NCCc3ccccc3)c(=O)n2CC(=O)NCc2cc(Cl)c3[nH]cnc3c2)cn1` [Compound 130, N-((7-Chloro-1H-Benzo[d]Imidazol-5-yl)Methyl)-2-(6-(1-Methyl-1H-Pyrazol-4-yl)-2-Oxo-3-(Phenethylamino)Pyrazin-1(2H)-yl)Acetamide] as the compound, how does the Ki read?
Answer: 2.5 to 10 µM

Question: `Cn1cc(-c2cnc(NCCc3ccccc3)c(=O)n2CC(=O)NCc2cnc3[nH]ccc3c2)cn1` [Compound 131, N-((1H-Pyrrolo[2,3-b]Pyridin-5-yl)Methyl)-2-(6-(1-Methyl-1H-Pyrazol-4-yl)-2-Oxo-3-(Phenethylamino)Pyrazin-1(2H)-yl)Acetamide] was tested. Which Ki did it give?
Answer: > 10 µM

Question: `Cn1cc(-c2cnc(NCCc3ccccc3)c(=O)n2CC(=O)NCc2cc3cnccc3o2)cn1` [Compound 132] was tested. Which Ki did it give?
Answer: 0.5 to 2.5 µM

Question: With `Cn1cc(-c2cnc(NCCc3ccccc3)c(=O)n2CC(=O)NCc2cc3cnccc3s2)cn1` [Compound 133, 2-(6-(1-Methyl-1H-Pyrazol-4-yl)-2-Oxo-3-(Phenethylamino)Pyrazin-1(2H)-yl)-N-(Thieno[3,2-c]Pyridin-2-Ylmethyl)Acetamide] as the compound, how does the Ki read?
Answer: < 0.5 µM

Question: `CC(C)Nc1ncc(-c2ccccc2)n(CC(=O)NCc2cc3cnccc3[nH]2)c1=O` [Compound 134, N-((1H-Pyrrolo[3,2-c]Pyridin-2-yl)Methyl)-2-(3-(Isopropylamino)-2-Oxo-6-Phenylpyrazin-1(2H)-yl)Acetamide] was tested. Which Ki did it give?
Answer: < 0.5 µM

Question: `Cc1ccccc1CCNc1ncc(-c2ccccc2)n(CC(=O)NCc2cc3cnccc3[nH]2)c1=O` [Compound 135, N-((1H-Pyrrolo[3,2-c]pyridin-2-yl)methyl)-2-(3-((2-methylphenethyl)amino)-2-oxo-6-phenylpyrazin-1(2H)-yl)acetamide] was tested. Which Ki did it give?
Answer: < 0.5 µM

Question: How did the Ki turn out when `COc1cccc(CCNc2ncc(-c3ccccc3)n(CC(=O)NCc3cc4cnccc4[nH]3)c2=O)c1` [Compound 136, N-((1H-Pyrrolo[3,2-c]pyridin-2-yl)methyl)-2-(3-((3-methoxyphenethyl)amino)-2-oxo-6-phenylpyrazin-1(2H)-yl)acetamide] was run?
Answer: < 0.5 µM

Question: With `Cc1cccc(CCNc2ncc(-c3ccccc3)n(CC(=O)NCc3cc4cnccc4[nH]3)c2=O)c1` [Compound 137, N-((1H-Pyrrolo[3,2-c]pyridin-2-yl)methyl)-2-(3-((3-methylphenethyl)amino)-2-oxo-6-phenylpyrazin-1(2H)-yl)acetamide] as the compound, how does the Ki read?
Answer: < 0.5 µM

Question: Which Ki does the source give for `Cc1ccc(CCNc2ncc(-c3ccccc3)n(CC(=O)NCc3cc4cnccc4[nH]3)c2=O)cc1` [Compound 138, N-((1H-Pyrrolo[3,2-c]pyridin-2-yl)methyl)-2-(3-((4-methylphenethyl)amino)-2-oxo-6-phenylpyrazin-1(2H)-yl)acetamide] here?
Answer: < 0.5 µM

Question: How did the Ki turn out when `O=C(Cn1c(-c2ccccc2)cnc(N2CC(c3ccccc3)C2)c1=O)NCc1cc2cnccc2[nH]1` [Compound 139, N-((1H-Pyrrolo[3,2-c]pyridin-2-yl)methyl)-2-(2-oxo-6-phenyl-3-(3-phenylazetidin-l-yl)pyrazin-1(2H)-yl)acetamide] was run?
Answer: < 0.5 µM

Question: How did the Ki turn out when `O=C(Cn1c(-c2ccccc2)cnc(N2CCC(c3ccccc3)CC2)c1=O)NCc1cc2cnccc2[nH]1` [Compound 140, N-((1H-Pyrrolo[3,2-c]pyridin-2-yl)methyl)-2-(2-oxo-6-phenyl-3-(4-phenylpiperidin-l-yl)pyrazin-1(2H)-yl)acetamide] was run?
Answer: < 0.5 µM

Question: With `COc1ccccc1CCNc1ncc(-c2ccccc2)n(CC(=O)NCc2cc3cnccc3[nH]2)c1=O` [Compound 141, N-((1H-Pyrrolo[3,2-c]pyridin-2-yl)methyl)-2-(3-((2-methoxyphenethyl)amino)-2-oxo-6-phenylpyrazin-1(2H)-yl)acetamide] as the compound, how does the Ki read?
Answer: < 0.5 µM

Question: With `COc1ccc(CCNc2ncc(-c3ccccc3)n(CC(=O)NCc3cc4cnccc4[nH]3)c2=O)cc1` [Compound 142, N-((1H-Pyrrolo[3,2-c]pyridin-2-yl)methyl)-2-(3-((4-methoxyphenethyl)amino)-2-oxo-6-phenylpyrazin-1(2H)-yl)acetamide] as the compound, how does the Ki read?
Answer: < 0.5 µM

Question: How did the Ki turn out when `O=C(Cn1c(-c2ccccc2)cnc(N2CC[C@H](c3ccccc3)C2)c1=O)NCc1cc2cnccc2[nH]1` [Compound 143, (R)-N-((1H-Pyrrolo[3,2-c]pyridin-2-yl)methyl)-2-(2-oxo-6-phenyl-3-(3-phenylpyrrolidin-l-yl)pyrazin-1(2H)-yl)acetamide] was run?
Answer: < 0.5 µM
